Assay results from ChEMBL document CHEMBL5579814, “Analogues of the pan-selectin antagonist rivipansel (GMI-1070)” (Eur J Med Chem, 2024).

How the values were obtained:
[1] = biological target: T1, E-selectin (Homo sapiens, UniProt P16581); test: Binding affinity to E-selectin SCR2 domain (unknown origin) by isothermal titration calorimetry
T1 sequence (P16581 whole entry): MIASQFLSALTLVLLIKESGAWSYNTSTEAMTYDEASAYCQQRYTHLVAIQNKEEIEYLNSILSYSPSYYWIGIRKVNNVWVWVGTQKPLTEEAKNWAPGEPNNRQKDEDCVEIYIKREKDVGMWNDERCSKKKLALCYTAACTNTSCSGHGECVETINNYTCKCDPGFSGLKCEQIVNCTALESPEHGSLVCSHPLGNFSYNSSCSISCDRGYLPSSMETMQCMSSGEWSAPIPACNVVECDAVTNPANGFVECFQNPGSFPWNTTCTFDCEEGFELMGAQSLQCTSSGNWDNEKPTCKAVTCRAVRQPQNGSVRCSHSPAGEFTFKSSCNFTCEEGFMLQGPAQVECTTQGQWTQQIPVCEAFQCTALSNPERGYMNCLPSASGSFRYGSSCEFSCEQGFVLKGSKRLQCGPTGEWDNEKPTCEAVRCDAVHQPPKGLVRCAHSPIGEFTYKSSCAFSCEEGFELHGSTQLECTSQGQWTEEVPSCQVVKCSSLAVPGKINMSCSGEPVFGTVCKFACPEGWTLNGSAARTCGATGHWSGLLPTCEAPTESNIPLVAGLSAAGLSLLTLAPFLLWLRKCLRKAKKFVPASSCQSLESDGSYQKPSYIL

[2] = Inhibition of horseradish peroxidase coupled sialyl Lewisa-polyacrylamide polymer binding to human P-selectin/IgG chimera measured after 2 hrs in presence of TMB by colorimetric assay
[3] = biological target: T1, E-selectin; test: Binding affinity to sialyl LewisX mimetic 21a pretreated Blue-NHS-labelled E-selectin Lec-EGF/SCR1/SCR2 domain (unknown origin) measured after 20 mins by microscale thermophoresis

Row | Kd [1] [µM] | IC50 [2] [µM] | Kd [3] [µM] | SMILES
1 | 60.7 | – | – | C[C@@H]1O[C@@H](O[C@@H]2CCCC[C@H]2O[C@@H]2O[C@H](CO)[C@H](O)[C@H](O[C@@H](CC3CCCCC3)C(=O)O)[C@H]2O)[C@@H](O)[C@H](O)[C@@H]1O
2 | – | 210 | – | CC[C@H]1C(C(=O)NCCCc2cn(CCCCC(=O)Nc3cc(S(=O)(=O)O)cc4cc(S(=O)(=O)O)cc(S(=O)(=O)O)c34)nn2)CC[C@@H](O[C@@H]2O[C@H](CO)[C@H](O)[C@H](O[C@@H](CC3CCCCC3)C(=O)O)[C@H]2OC(=O)c2ccccc2)[C@@H]1O[C@@H]1O[C@@H](C)[C@@H](O)[C@@H](O)[C@@H]1O (stereo partly drawn)
3 | – | ≥ 7000 | 738 | CO[C@@H]1O[C@H](CO)[C@@H](O[C@@H]2O[C@H](CO)[C@H](O)[C@H](O[C@]3(C(=O)O)C[C@H](O)[C@@H](NC(C)=O)[C@H]([C@H](O)[C@H](O)CO)O3)[C@H]2O)[C@H](O[C@@H]2O[C@@H](C)[C@@H](O)[C@@H](O)[C@@H]2O)[C@H]1NC(C)=O

The remaining lines, values behind:

Row | SMILES | Kd [1] [µM] | IC50 [2] [µM] | Kd [3] [µM]
4 | CC[C@H]1C(C(=O)NCCCc2cn(CCCC(=O)Nc3cc(S(=O)(=O)O)cc4cc(S(=O)(=O)O)cc(S(=O)(=O)O)c34)nn2)CC[C@@H](O[C@@H]2O[C@H](CO)[C@H](O)[C@H](O[C@@H](CC3CCCCC3)C(=O)O)[C@H]2OC(=O)c2ccccc2)[C@@H]1O[C@@H]1O[C@@H](C)[C@@H](O)[C@@H](O)[C@@H]1O (stereo partly drawn) | – | 82 | –
5 | COC(=O)[C@@H]1C[C@H](NC(=O)c2cc(=O)[nH]c(=O)[nH]2)[C@@H](O[C@@H]2O[C@@H](C)[C@@H](O)[C@@H](O)[C@@H]2O)[C@H](O[C@@H]2O[C@H](CO)[C@H](O)[C@H](O[C@@H](CC3CCCCC3)C(=O)O)[C@H]2OC(=O)c2ccccc2)C1 | – | 3390 | –
6 | CC[C@@H]1[C@@H](O[C@@H]2O[C@@H](C)[C@@H](O)[C@@H](O)[C@@H]2O)[C@H](O[C@@H]2O[C@H](CO)[C@H](O)[C@H](O[C@@H](CC3CCCCC3)C(=O)O)[C@H]2OC(=O)c2ccccc2)CC[C@@H]1C(=O)NCCCc1cn(CCC(=O)Nc2cc(S(=O)(=O)O)cc3cc(S(=O)(=O)O)cc(S(=O)(=O)O)c23)nn1 | – | 94 | –
7 | C[C@@H]1O[C@@H](O[C@@H]2[C@@H](NC(=O)c3cc(=O)[nH]c(=O)[nH]3)C[C@@H](C(=O)NCCNC(=O)COCCOCC(=O)Nc3cc(S(=O)(=O)O)cc4cc(S(=O)(=O)O)cc(S(=O)(=O)O)c34)C[C@H]2O[C@@H]2O[C@H](CO)[C@H](O)[C@H](O[C@@H](CC3CCCCC3)C(=O)O)[C@H]2OC(=O)c2ccccc2)[C@@H](O)[C@H](O)[C@@H]1O [RIVIPANSEL] | – | 423 | –
